Data from article PMC2120418 (The Journal of Cell Biology, 1995).

Assays:
[1] = test system: rat CCK-A receptors on CHO-CCKR cells; experiment: Indirect immunofluorescence of surface CCK receptor after agonist occupation; type: cell-based, rat receptor in CHO cells; settings: 10 nM CCK-8, 30 min, 37C
[2] = test system: dispersed rat pancreatic acini; settings: core peptide for the probes; cited from earlier work

Substance | Surface immunolabeling of the receptor, level relative to control cells [1] [%] | Biological activity of core peptide [2]
CCK-8: native cholecystokinin hormone, nonfluorescent agonist | 49 | –
GIy-[(NIe2S.31)CCK26-33] | – | fully biologically active
